Experimental data from patent publication US11472846B2, “Compositions and methods for treating diseases by inhibiting exosome release” (priority 2016, dated 2022).

Legend:
Format in all cases: cell-based, human
K562 exosomes = test: Western blot of exosomal proteins (Alix, vimentin, mortalin), K562; settings: K562 cells, 48 hr treatment
Description: (§1) 7-7. Protein analysis by Western blotting. Exosomes were isolated from cell culture supernatants as described above. Protein concentrations were determined by measuring absorbance at 280 nm (Nanodrop 2000). Cultured cells were treated with PEG-SMR-Clu, SMR-CPP peptides, MKT-077, Omeprazole or DMA at 37° C. for 48 hr. To evaluate mortalin, vimentin and exosome expression, Western blot analysis was performed using anti-mortalin (Grp-75), anti-Vimentin and anti-Alix antibodies, respectively (FIG. 12).
(§2) Exosomes and cell lysates were prepared by incubating 5-10 min at 95° C. in sample buffer. The lysates were subjected to SDS-PAGE under reducing conditions (150 mM DTT) in 4-20% Criterion™ TGX™ precast gels (BioRad, Hercules, Calif.) and then transferred onto a nitrocellulose membrane (Bio-Rad, Hercules, Calif.). Nitrocellulose membranes were blocked with 5% skim milk (MedSupply, Atlanta, Ga.) in TBS containing 0.05% Tween 20 (TBST) for 1 h at room temperature. The membranes were treated with anti-mortalin (Grp-75) mAb or anti-α-tubulin mAb for cell lysates (FIG. 15, Panels A and B) or with anti-Alix and anti-vimentin or anti-mortalin for exosomes (FIG. 12), followed by peroxidase-conjugated goat anti-mouse IgG. Bands were developed with an ECL chemiluminescent substrate (Santa Cruz Biotechnology, Santa Cruz, Calif.) and exposed to an ImageQuant LAS 4000 imaging system (GE Healthcare, Piscataway, N.J. 08854).

MDA-MB-231 cells = test: Complement-mediated cell cytotoxicity assay (trypan blue), MDA-MB-231; settings: for cell death under complement-positive conditions: 280 nM PEG-SMRwt-Clu or 560 nM SMRwt-CPP 60 min, then anti-CXCR4 antibody and NHS 60 min; for cell death under complement-negative conditions: 280 nM PEG-SMRwt-Clu or 560 nM SMRwt-CPP, 60 min
Description: 7-9. Complement-mediated cell cytotoxicity assay. Complement-mediated cell cytotoxicity assays were performed as previously described (Reiter et al., Mol Immunol. (1992) 29(6): p. 771-81). Briefly, MCF-7, MDA-MB-231 and K562 cells were either mock-transfected or transfected with mortalin siRNA. […] or SMRwt-CPP peptide or SMRmut-CPP peptide alone, or treated with SMR peptide combined with complement from normal human serum (NHS) or heat-inactivated normal human serum (NIS) for 60 min at 37° C. Percentage of cells lysed were determined by a trypan blue exclusion assay using the TC10™ Automated Cell Counter (Bio-Rad, Richmond Calif.). (FIG. 14, FIG. 15, Panel D).

MDA-MB-231 exosomes = test: Western blot of exosomal proteins (Alix, vimentin, mortalin), MDA-MB-231; settings: MDA-MB-231 cells, 48 hr treatment
Description: as §1, §2

[1] = test system: MCF-7 breast cancer cells; test: Exosome release by acetylcholinesterase (AchE) assay, MCF-7; settings: for average AChE concentration days 1 to 5: MCF-7 cells, five-day treatment
Description: 1-6. Exosome isolation and purification. Exosomes were isolated from breast cancer cells by differential centrifugation as previously described (Ali SA. et al., 2010). Untreated tumor cells were used as a control. Briefly, the above treated and untreated cell culture supernatants were centrifuged at 400×g for 10 minutes. The supernatants were transferred to a clear tube and centrifuged at 10,000×g for 30 minutes. The supernatants from the second spin were ultracentrifuged at 200,000×g for 2 hours to pellet exosomes. Finally, the exosome pellets were re-suspended with PBS and stored at 4° C. until used for analysis.
1-7. Exosome characterization by acetylcholinesterase (AchE) assay. Purified exosomes were quantitated by measurement of AchE as described (Ellman et al., 1961). Briefly, a 100 mM dithibionitrobenzoic (DTNB) solution was prepared for use as a stock color indicator, and a 28.9 mg/mL acetylthiocholine iodide in PBS solution was prepared as a stock substrate. The stock substrate stock can be stored at −20° C. up to one month, while the color indicator can be stored at 4° C. for two weeks. A working solution was prepared by mixing 10 mL of PBS with 200 μL of Substrate and 500 μl of DTNB. 50 μL of each exosome sample was transferred to 96 well microtitre plates, and a standard curve was prepared using AchE from 0.98 mU/mL to 2000 mU/mL. After 50 μL of standards were added into separate wells, 200 μL of the working solution was added to all wells. After 20 min incubation, AchE activity was measured at 450 nm using a SpectroMax M5 fluorimeter.
7-5. Exosome isolation and purification. Exosomes were isolated from breast cancer cells and leukemia cells using the ExoQuick-TC Exosome Precipitation Kit (System Biosciencences [SBI], Mountain View Calif.) or the miRCURY Exosome Isolation Kit (EXIQON, Woburn, Mass.) according to the manufacturer's instructions. Untreated tumor cells were used as a control. Briefly, treated and untreated cell culture supernatants (10 mL) were centrifuged at 3000×g for 15 minutes. The resulting supernatants were transferred to a clear tube, 2 mL of ExoQuick-TC buffer was added, mixed and incubated overnight at 4° C. Following the incubation, the sample contents were centrifuged at 1500×g for 30 minutes, the supernatants were aspirated off, the pellets were centrifuged at 1500×g for 5 minutes and any further traces of supernatant were removed (SBI). Alternatively, treated and untreated cell culture supernatants were centrifuged at 10,000×g for 5 minutes to remove cell debris, supernatants (10 ml) were transferred into new tubes, and 4 mL of precipitation buffer (EXIQON) was added, and the contents were mixed and incubated at 4° C. overnight. Following the incubation, the sample contents were centrifuged at 10,000×g for 30 minutes (EXIQON). Exosome-containing pellets were re-suspended in PBS and stored at 4° C. or −80° C.
7-6. Exosome characterization by acetylcholinesterase (AchE) assay. Purified exosomes were quantitated by measurement of AchE as previously described (Huang et al., Oncotarget, 2017. 8(7): pp. 11302-11315). Briefly, 100 mM dithibionitrobenzoic (DTNB) was prepared as a stock color indicator, and prepared a stock substrate containing 28.9 mg/mL of acetylthiocholine iodide in PBS. Substrate stock can be stored at −20° C. up to one month; the stock color indicator can be stored at 4° C. for two weeks. A working solution was prepared by mixing 10 mL of PBS with 200 μL of substrate and 500 μl of DTNB. 50 μL of each exosome sample was transferred to a 96 well microtitre plate, and a standard curve for AchE concentrations was prepared using AchE from 0.98 mU/mL to 2000 mU/mL. After 50 μL of standards were added into separate wells, 200 μL of the working solution was added to each well. After a 20 min incubation, AchE activity was measured at 450 nm using a SpectroMax M5 fluorometer (FIG. 11).

Sequence | Alix expression in exosomes (K562 exosomes) | Mortalin expression in exosomes (K562 exosomes) | cell death under complement-positive conditions (MDA-MB-231 cells) [%] | cell death under complement-negative conditions (MDA-MB-231 cells) [%] | Alix expression in exosomes (MDA-MB-231 exosomes) | Mortalin expression in exosomes (MDA-MB-231 exosomes) | Vimentin expression in exosomes (MDA-MB-231 exosomes) | AchE activity in exosomes ([1]; MCF-7 cells treated 48 hr, control exosomes 113.49 mU/mL) [mU/mL] | average AChE concentration days 1 to 5 [1] [mU/mL]
NXNVGFPVAAVGFPVHPLSKHPYWSQP (SEQ ID NO: 37) [PEG-SMRwt-Clu] | significantly decreased | significantly decreased | 76 | 3.6 | significantly decreased | significantly decreased | significantly decreased | 41.95 | 31
VGFPVAAVGFPVGRKKRRQRRRPPQ [SMRwt-CPP] | significantly decreased | significantly decreased | 9 | 3.6 | significantly decreased | significantly decreased | significantly decreased | – | 22
